# In patent US20140094424A1, “MICROBICIDAL COMPOSITIONS AND METHODS OF PRODUCTION USE THEREOF” (priority 2011, published 2014):
# Test system: Penicillium notatum-KMO (R)
# Assay: MBC (minimum bactericidal concentration) test in Wash NEXT reagent
# Assay type: cell-based
# Settings: for total kill at % preservative (MBC): at 14 days
# Procedure: The stock organisms were thawed and subbed prior to beginning the MBC test. Molds were subbed to SDA plates one week before, and the bacteria were subbed to TAT agar plates 24 hours prior to the start of the test. All plates were incubated at 32 degrees C.
# For the molds, each organism was inoculated into 40 ml sterile saline in a centrifuge tube to create a density of MacFarland #5. Two serial dilutions of 1:100 were then made, resulting in 10^−2 and 10^−4 concentrations. Each dilution was vortexed before it was sampled, and sterile Eppendorf pipette tips were used to make each transfer. The 10^−4 dilution was spiral plated to yield the initial inoculum concentration.
# MBC trays were set up with the prepared test reagent. Using a Matrix pipettor, 100 μl aliquots of reagent were distributed into the wells, diluting the amount of preservative from 100% to 10% increments, using unpreserved reagent as the diluent. In one row, 100% non-preserved reagent acted as a positive control and served as a benchmark for a full mat of growth. In well #12H, 100 μl unpreserved reagent was pipetted, and this well was not inoculated with organisms, as it served as the negative control. Once all of the trays were prepared, the prepared bacteria/mold suspensions were poured into the MBC inoculating trays. These were placed onto the reagent trays, and 0.01 ml inoculum was introduced into the 100 μl of reagent in each well.
# This was done by dipping a sterile cotton swab into each well, and absorbing all of the liquid in the well. The swab was rolled onto a TAT agar plate ensuring that the entire swab touches the agar. Plates ware incubated at 32 degrees C. for 48 hours to 7 days, depending on the organism. Observations for growth were performed by a scoring matrix using + for a full mat, +/− for some growth, a numerical value for an actual colony count, and—for no growth.
# Below are tables that contain the data obtained in Example 1. The MBC test is scored by (+) indicating a full grown mat of organisms, equivalent to the organisms in the unpreserved reagent. (+/−) indicates there is some kill evident disturbing that mat or bringing the quantities down to an almost countable level. An actual number is the actual number of colonies growing at that concentration of preservative. (−) indicates no growth found. The MBC trays were stored at room temperature for the entire test.
# The materials and methods and analysis of the MBC test were the same as in Example 1.
compound,measurement,setting,value
"[N-]=[N+]=[N-] [Sodium Azide, sodium azide]",growth,"10%, 8 hour",+
same,growth,"10%, 24 hour",+
same,growth,"10%, 48 hour",+/−
same,growth (number of organisms counted),"10%, 72 hour",24
same,growth (number of organisms counted),"10%, 7 day",20
same,growth (number of organisms counted),"10%, 14 day",14
same,growth,"20%, 8 hour",+
same,growth,"20%, 24 hour",+
same,growth,"20%, 48 hour",+/−
same,growth (number of organisms counted),"20%, 72 hour",22
same,growth (number of organisms counted),"20%, 7 day",19
same,growth (number of organisms counted),"20%, 14 day",11
same,growth,"30%, 8 hour",+
same,growth,"30%, 24 hour",+
same,growth,"30%, 48 hour",+/−
same,growth (number of organisms counted),"30%, 72 hour",22
same,growth (number of organisms counted),"30%, 7 day",19
same,growth (number of organisms counted),"30%, 14 day",8
same,growth,"40%, 8 hour",+
same,growth,"40%, 24 hour",+
same,growth,"40%, 48 hour",+/−
same,growth (number of organisms counted),"40%, 72 hour",18
same,growth (number of organisms counted),"40%, 7 day",15
same,growth (number of organisms counted),"40%, 14 day",6
same,growth,"50%, 8 hour",+
same,growth,"50%, 24 hour",+
same,growth,"50%, 48 hour",+/−
same,growth (number of organisms counted),"50%, 72 hour",15
same,growth (number of organisms counted),"50%, 7 day",12
same,growth,"50%, 14 day",−
same,growth,"60%, 8 hour",+
same,growth,"60%, 24 hour",+
same,growth,"60%, 48 hour",+/−
same,growth (number of organisms counted),"60%, 72 hour",13
same,growth (number of organisms counted),"60%, 7 day",10
same,growth,"60%, 14 day",−
same,growth,"70%, 8 hour",+
same,growth,"70%, 24 hour",+
same,growth,"70%, 48 hour",+/−
same,growth (number of organisms counted),"70%, 72 hour",11
same,growth (number of organisms counted),"70%, 7 day",9
same,growth,"70%, 14 day",−
same,growth,"80%, 8 hour",+
same,growth,"80%, 24 hour",+
same,growth,"80%, 48 hour",+/−
same,growth (number of organisms counted),"80%, 72 hour",9
same,growth (number of organisms counted),"80%, 7 day",6
same,growth,"80%, 14 day",−
same,growth,"90%, 8 hour",+
same,growth,"90%, 24 hour",+
same,growth,"90%, 48 hour",+/−
same,growth (number of organisms counted),"90%, 72 hour",7
same,growth (number of organisms counted),"90%, 7 day",4
same,growth,"90%, 14 day",−
same,growth,"100%, 8 hour",+
same,growth,"100%, 24 hour",+
same,growth,"100%, 48 hour",+/−
same,growth (number of organisms counted),"100%, 72 hour",6
same,growth (number of organisms counted),"100%, 7 day",3
same,growth,"100%, 14 day",−
same,total kill at % preservative (MBC),,had total kill at 50% preservative at 14
same,total kill at % preservative (MBC),listed as Na Azide,Total kill @ 50%
